The numbers were not newly measured in publication PMC11320730, “5-Methoxy-2-aminoindane Reverses Diet-Induced Obesity and Improves Metabolic Parameters in Mice: A Potential New Class of Antiobesity Therapeutics” (ACS Pharmacology & Translational Science, 2024), which cites them from elsewhere.

Series [1] concerns rats fed a cafeteria diet. Also noted: method as in PMID 35664477. To be noted: cited from earlier work.
The test system of series [2] is lean mice, DIO mice, ob/ob mice and melanocortin-receptor 4 knockout mice. Also noted: method as in PMID 35953488. To be noted: ob/ob and melanocortin-receptor 4 knockout mice; cited from earlier work.
The subject of series [3] is adult female participants with anorexia nervosa. To be noted: single 25 mg dose with psychological support, 10 adult female participants; cited from earlier work.

For the molecule `CN(C)CCc1c[nH]c2cccc(OP(=O)(O)O)c12` [psilocybin], the weight loss result in series [1] (at the given doses) is given as “no effect”. Moreover, the weight gain entry in series [1] is “reduced”. Moreover, in series [2], the body weight entry was “no impact” and the food intake entry was “no impact”. Moreover, the “safety and tolerability (adverse events)” value in series [3] was “no clinically significant adverse events observed”.
